Entries after “also recorded” stand apart in the source; their conditions may differ.
Assays:
[1] = tested on: NHE1; set-up: method as in PMID 21544803; settings: cited from earlier work
[2] = tested on: DU 145; set-up: method as in PMID 9044824; settings: DU 145 xenografted SCID mice, high doses; cited from earlier work
[3] = tested on: LNCaP; set-up: method as in PMID 9044824; settings: LNCaP xenografted SCID mice, high doses; cited from earlier work
[4] = tested on: DU 145 cells; assay: Anchorage-dependent colony formation; format: cell-based, human; settings: 10 µM, 8 days
Description: To examine anchorage-dependent colony formation, we used 60 mm polystyrene dishes that had been coated to introduce hydrophilic groups producing a standard growth surface (Sarstedt, Numbrecht, Germany). To measure anchorage-dependent colony growth, the cells were plated into in the 60 mm dishes at a density of 1000 cells per dish. They were grown in complete growth media. To examine the effects of various compounds, 2–30 µM of the indicated drugs were added to culture dishes. An equal volume of DMSO (vehicle) alone was added to otherwise-untreated controls. After growth for 8 days, colonies were fixed in ice-cold methanol; they were stained with 0.5% crystal violet in methanol and washed, and then left to air-dry. The colonies of > 50 cells/colony were imaged and counted. The number of […] colonies was normalized to the number of control colonies and presented as a percentage of control colonies formed.

[5] = target: T1, NHE1 (Homo sapiens, UniProt P19634); assay: Na+/H+ exchanger activity, recovery from acute acid load (BCECF); format: cell-based; settings: 10 µM
T1 construct: the activity of the NHE1 protein in DU 145 cells; host or cells: DU 145 human prostate cancer cells
Source text: In the next series of experiments, we used NHE1 activity assays to examine the activity of wild-type DU 145 cells and the knockout cell line. […] For the wild type, it illustrates the initial pH, alkalinization caused by ammonium chloride, and the recovery from acidification caused by the removal of ammonium chloride. The recovery upon reintroduction of NaCl is illustrated for both wild-type and knockout cells (Figure 2A,B), and a summary of six experiments is shown in Figure 2E. For wild-type cells, the recovery was robust, at a rate of over 0.008 pH units/s. […] This may be due to either leakage out of the cell, or to the action of other proton transporters present in cells. […]
Figure 2 Na^+/H^+ exchanger activity in parental DU 145 cells, in NHE1-knockout cells (NHE1-KO), and in knockout cells that had NHE1 reintroduced (NHE1-RI). […] The intracellular pH was recorded in cells transiently acidified using ammonium chloride addition. […] (E) Bar graph showing a summary of the initial rate of recovery; this was measured relative to the wild-type protein and recorded as delta pH/s. n ≥ 6, mean +/− SE. […] The activity of NHE1 was calculated from the changes over the first 20 s of recovery from the acid load, and was expressed as ΔpH/s. […]
Intracellular pH was measured using 2′,7-bis(2-carboxyethyl)-5(6) carboxyfluorescein acetoxymethyl ester (BCECF-AM), in a similar manner to that described in [29]. […]

[6] = tested on: DU 145 cells; assay: Cell migration, wound-healing assay; format: cell-based, human
Description: Figure 4 Effects of NHE1-KO or NHE1 inhibition on cell migration examined in wild-type (WT) and NHE1-knockout (KO) DU 145 cells. The rate of closure of the induced gap was evaluated using the wound-healing assay, as described in the Section 4. (A) Examples of the effects of NHE1-KO on wound closure. Upper panel: example of WT DU 145 cells with gaps at 0 and 24 h. Middle panel: example of DU 145 NHE1 KO cells at 0 and 24 h. Lower panel: example of RI cell growth. (B) Summary of results; * indicates significant differences from the same group at 0 h, p < 0.05, n ≥ 6. (C,D) Effects of different concentrations of various NHE1/uPA inhibitors on migration (gap closure) of DU 145 cells. CT: control; EMD: EM87580; other compounds are as names. (C) Summary of the effects of 2 µM of various compounds on the migration of wild-type DU 145 cells. (D) Summary of the effects of 10 µM of various compounds on the migration of wild-type DU 145 cells (BB2-30F was used at 30 µM); * indicates significant differences from untreated control cells at p < 0.05.
Cell migration was studied using a wound-healing assay similar to that described in [13]. Briefly, cells were seeded in 12-well plates ([…]) the day before assay, and then grown to a confluent monolayer. A “scratch” was created in the cell monolayer with a p20 pipette tip in a straight line. The cells were washed twice with PBS to remove the debris, and the medium was changed to 2 mL of growth medium. To obtain the same field during image acquisition, three crosses were marked on the outside of each well as a reference. The scratch gaps above and below the crosses were measured. We acquired six images of the scratch for each well using a Leica DM IRB microscope (at 10× magnification). Arbitrary measurements of gap closure were quantified using Image-Pro Plus software. A minimum of six images/well and five measurements/image were acquired for each treatment; all treatments were repeated at least three times. Data shown are representative of the decrease in gap distance at 24 h, compared to the initial measurement at 0 h. […]

[7] = target: uPA (Homo sapiens, UniProt P00749); assay: uPA activity assay; format: biochemical
Description: We next tested the efficacy of a new family of NHE inhibitors on the activity of the NHE1 protein in DU 145 cells. In order to do this, we used a double-pulse assay, in which there were two consecutive ammonium-chloride-induced acidifications. The rate of recovery in the second pulse in the presence of the inhibitor was measured relative to that of the first pulse in the absence of the inhibitor. In control experiments, we observed that the second pulse, in the absence of the inhibitor, was equivalent to that of the first (Figure 3A). […] A summary of the results is shown in Figure 3C–G, [32] and a summary of the IC50 values can be found in Table 1. The various compounds tested had differing potencies towards NHE1 activity. […] Figure 3C–G also show the inhibition of uPA activity for each compound on the same plots (red line), assayed as indicated in the Section 4. […] (Table 1).
Synthesis of NHE1/uPA inhibitors was as described previously, as was the determination of uPA activity, where each compound was described as the number in parentheses: BB2-50F (5), BB2-30F (26), AA1-111 (29), and AA1-135 (30).

[8] = target: T1, NHE1; assay: Na+/H+ exchanger activity, double ammonium chloride pulse assay in DU 145 cells; format: cell-based
Description: We next tested the efficacy of a new family of NHE inhibitors on the activity of the NHE1 protein in DU 145 cells. In order to do this, we used a double-pulse assay, in which there were two consecutive ammonium-chloride-induced acidifications. The rate of recovery in the second pulse in the presence of the inhibitor was measured relative to that of the first pulse in the absence of the inhibitor. In control experiments, we observed that the second pulse, in the absence of the inhibitor, was equivalent to that of the first (Figure 3A). […] A summary of the results is shown in Figure 3C–G, [32] and a summary of the IC50 values can be found in Table 1. […]
Figure 3 Characterization of the effects of pharmacological compounds on the activity of the Na^+/H^+ exchanger using the double-pulse assay. Na^+/H^+ exchanger activity was determined as described in Figure 2 and in the Section 4, using a dual ammonium chloride pulse assay. The rate of recovery in the first pulse, in the absence of the drug, was measured. […]
Intracellular pH was measured using 2′,7-bis(2-carboxyethyl)-5(6) carboxyfluorescein acetoxymethyl ester (BCECF-AM), in a similar manner to that described in [29]. […] Cells were loaded with BCECF and fluorescence was measured using a PTI Deltascan spectrofluorometer. NHE1 activity was measured after inducing an acute acid load using ammonium chloride. […]

T1 sequence (P19634 whole entry): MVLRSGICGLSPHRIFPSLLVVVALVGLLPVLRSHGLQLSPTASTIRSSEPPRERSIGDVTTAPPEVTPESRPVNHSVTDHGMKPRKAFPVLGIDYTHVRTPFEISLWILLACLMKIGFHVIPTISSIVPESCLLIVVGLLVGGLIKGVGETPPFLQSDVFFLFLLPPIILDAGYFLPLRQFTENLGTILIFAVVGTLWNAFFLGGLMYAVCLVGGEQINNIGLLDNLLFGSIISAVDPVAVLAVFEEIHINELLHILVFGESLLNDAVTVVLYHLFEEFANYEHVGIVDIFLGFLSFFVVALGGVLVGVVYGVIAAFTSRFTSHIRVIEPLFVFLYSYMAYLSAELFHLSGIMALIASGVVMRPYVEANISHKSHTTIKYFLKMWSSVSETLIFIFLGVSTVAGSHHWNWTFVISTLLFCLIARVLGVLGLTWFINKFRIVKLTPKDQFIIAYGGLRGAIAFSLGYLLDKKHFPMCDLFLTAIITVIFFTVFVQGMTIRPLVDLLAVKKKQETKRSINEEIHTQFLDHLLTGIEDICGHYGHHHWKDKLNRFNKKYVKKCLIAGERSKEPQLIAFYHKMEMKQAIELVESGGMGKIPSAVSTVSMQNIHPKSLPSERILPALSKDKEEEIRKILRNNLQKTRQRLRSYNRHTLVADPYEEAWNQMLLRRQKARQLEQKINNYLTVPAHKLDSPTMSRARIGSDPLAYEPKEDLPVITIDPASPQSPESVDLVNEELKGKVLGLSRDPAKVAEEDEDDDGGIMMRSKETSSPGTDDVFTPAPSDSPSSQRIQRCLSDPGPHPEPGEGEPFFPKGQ

| NHE1 activity (initial rate of recovery) ([5]; RI cells (NHE1 reintroduced into KO DU 145)) | NHE1 activity (initial rate of recovery) ([5]; wild-type DU 145 cells) | uPA inhibition (in words) ([7]; 2 µM) | NHE1 inhibition (in words) ([8]; 2 µM) | IC50 ([8]; DU 145 cells, double-pulse assay, read-out: Potency (IC50) towards NHE1) [nM] | Compound | inhibition of NHE1 (in words) [1] | tumor growth [2] | tumor growth [3] | anchorage-dependent colony formation [4] | cell migration ([6]; 2 µM, DU 145) | cell migration (gap closure) ([6]; 10 µM, 24 h, wild-type DU 145) | migration (gap closure) ([6]; any of the groups, including wild-type and RI DU 145 cells) | inhibition of uPA activity (in words) [7] |
| --- | --- | --- | --- | --- | --- | --- | --- | --- | --- | --- | --- | --- | --- |
|  |  |  |  |  | N=C(N)NC(=O)c1nc(Cl)c(N)nc1N [Amiloride] | low μM inhibitor | inhibit | inhibit |  |  |  |  |  |
| eliminated | eliminated | minimal inhibition of uPA | complete NHE1 inhibition | 450 | [H]/N=C(\N)NC(=O)c1cc(S(C)(=O)=O)c(S(C)(=O)=O)cc1C [EMD87580, rimeporide] |  |  |  | no effect | lack of effect | only very slight, non-significant effects | did not reduce migration | no inhibitory activity; also recorded: no effect on uPA |

— article PMC8705693, “Roles of the Na^+/H^+ Exchanger Isoform 1 and Urokinase in Prostate Cancer Cell Migration and Invasion” (International Journal of Molecular Sciences, 2021)
